Reference: publication PMC3589633 (Investigational New Drugs, 2012)
Like-named read-outs stand apart in the source and are kept apart here. Marks after values point to notes of the source that are not given here.

What was measured:
advanced solid tumors = test: Antitumor activity by RECIST; assay type: in vivo, human
[1] = test system: patients with advanced solid tumors; conditions: cited from earlier work
HER2 = conditions: read-out: half-maximal inhibitory concentration (IC50); cited from earlier work
HER4 = conditions: read-out: half-maximal inhibitory concentration (IC50); cited from earlier work
[2] = test system: patients with advanced or metastatic solid tumors
[3] = Plasma pharmacokinetics, noncompartmental analysis; assay type: in vivo, human; conditions: for clearance: total body clearance
[4] = test system: patients with advanced or metastatic solid tumors; conditions: in vivo
[5] = 20 mg q.d. oral, Day 27 steady state, n = 3
[6] = 60 mg q.d. oral, Day 27 steady state, individual value from one patient

SMILES: CN(C)C/C=C/C(=O)Nc1cc2c(Nc3ccc(F)c(Cl)c3)ncnc2cc1O[C@H]1CCOC1 [afatinib]
- patients with stable disease (advanced solid tumors; 40 mg dose cohort): Five
- objective responses (advanced solid tumors; 29 evaluable patients, RECIST): No objective responses
- patients remaining on treatment for more than 16 weeks (advanced solid tumors; one in 20 mg/d group, two in 40 mg/d group): Three
- duration of stable disease (advanced solid tumors; one ovarian cancer patient, 20 mg group): 204 days
- dose that could be safely administered ([1]; 2-week on/2-week off schedule): 70 mg/day
- dose administered with tolerable side effects ([1]; 3-week on/1-week off schedule): 40 mg/day
- maximum tolerated dose (MTD) ([1]; 3-week on/1-week off schedule): 55 mg/day
- recommended Phase II dose (RP2D) ([1]; once-daily, 2-week on/off schedule): 70 mg
- IC50 (HER2): 14 nM
- IC50 (HER4): 1 nM
- Patients discontinued owing to Disease progression ([2]; 10 mg/day): 4 (80) n, %
- Patients discontinued owing to Disease progression ([2]; 20 mg/day): 3 (100) n, %
- Patients discontinued owing to Disease progression ([2]; 40 mg/day): 14 (73.7) n, %
- Patients discontinued owing to Disease progression ([2]; 60 mg/day): 1 (33.3) n, %
- Patients discontinued owing to Disease progression ([2]; Total): 22 (73.3) n, %
- MTD ([2]; continuous once-daily oral, 28-day cycles): 40 mg/day
- Cpre,ss gMean ([3]; 10 mg q.d. oral, Day 27 steady state, N = 2): 2.64^b ng/mL
- CL/F,ss gMean ([3]; 10 mg q.d. oral, Day 27 steady state, n = 3): 2980 mL/min
- CL/F,ss gMean [3, 5]: 755 mL/min
- Cpre,ss gMean [3, 5]: 12.5 ng/mL
- Cpre,ss gMean ([3]; 40 mg q.d. oral, Day 27 steady state, N = 16): 16.1^c ng/mL
- CL/F,ss [3, 6]: 567 mL/min
- Cpre,ss [3, 6]: 52.3 ng/mL
- dose-proportionality ([3]; 10-60 mg, steady state): no obvious deviation from dose-proportionality
- steady-state reached ([3]; Treatment Period 1, once-daily oral): ≤ 8 days
- half-life ([3]; human, plasma, oral): 37.4 h
- Vd ([3]; human, plasma, oral, apparent volume of distribution during the terminal phase, overall gMean, all groups (data not shown)): 3630 L
- clearance ([3]; human, plasma, oral, gMean, range across dose groups): 567 to 2980 mL/min
- clearance ([3]; human, plasma, oral, overall gMean, across all groups (data not shown)): 1330 mL/min
- half-life ([3]; human, plasma, po): 34 to 48 h
- Patients discontinued owing to DLT ([4]; human): 2 (6.7) n, %
- Patients discontinued owing to Other AEs ([4]; human): 3 (10.0) n, %
- dermatitis acneiform, treatment-related AE, patients ([4]; human): 33.3%
- diarrhea, treatment-related AE, patients ([4]; human): 76.7%
- fatigue, treatment-related AE, patients ([4]; human): 33.3%
- mucosal inflammation, treatment-related AE, patients ([4]; human): 43.3%
- onset of diarrhea during the first treatment course, patients ([4]; human): 70%
- patients with AEs considered related to study medication ([4]; human): 29
- patients with at least one AE ([4]; human): 30
- Patients with DLT events during the initial 28-day treatment period ([4]; human, 28 days): 3 n
- cardiac events [4]: No cardiac events were reported
- patients with DLT, in total [4]: three patients
